# In article PMC11724075, “Small-molecule-induced ERBB4 activation to treat heart failure” (Nature Communications, 2025):
# Values joined by “and” are separate entries in the source; they are usually repeats but may differ in a detail not shown here. Identical values can stand only once.
# Test system: mouse model of MI
# Assay: Mouse model of MI (LAD ligation), echocardiography
# Type: in vivo
# Set-up: left-ventricular end-diastolic volume / left-ventricular end-systolic volume: unit not given here
# Experimental: Twelve-week-old female and male Balb/cJ (Charles River, 000651) mice were randomized into either the ctrl or MI group. Mice in the MI group underwent surgical ligation of the LAD, while mice in the ctrl group underwent a sham procedure (n = 8 female mice, n = 10 male mice). Briefly, all mice received an injection of 0.1 mg/kg buprenorphine (Produlab Pharma) before induction of anesthesia with 8% sevoflurane (Zoetis). Anesthesia was maintained with 4.5% sevoflurane and mice were intubated and ventilated. An incision of 15 mm was made on the left side of the thorax and the thoracic cavity was opened at the third intercostal space using blunt forceps. The LAD was permanently ligated with a 8/0 polypropylene monofilament sutures (Ethicon, F1894) after which the thoracic cavity and skin were closed with 6/0 polypropylene monofilament sutures (Ethicon, F1841). and 5/0 polyamide 6 sutures (Ethilon, F2412H), respectively. Mice received another dose of 0.1 mg/kg buprenorphine 6–8 h after the initial dose. Two days after surgery, cardiac ultrasound was performed to exclude mice without successful MI (i.e. displaying hypokinesia in ≥2 out of 5 segments). […] Cardiac ultrasound was performed weekly. After 4 weeks of treatment, mice were euthanized, and hearts were collected.
# Echocardiography was performed using the Vevo F2-LAZRX (FUJIFILM VisualSonics) and UHF57x probe. Mice were anesthetized with 1.5% isoflurane (Alvira, BE-V512222). Parasternal long-axis B-mode images and M-mode images were obtained and analyzed using VevoLAB software (FUJIFILM VisualSonics, Version 5.7.1). For the AngII experiments, measurements were obtained through analysis of the short-axis M-mode. For the MI experiments, measurements were obtained through analysis of the parasternal long-axis B-mode, of which the area and end-volume of the left ventricular cavity in diastole and systole were determined by tracing the endocardial border. Acquisitions, measurements and analyses were performed blinded.
# Supplementary Table 2. Echocardiographic parameters. […]
# Echocardiographic parameters obtained through left ventricular trace analysis of the parasternal long-axis obtained in B-mode in female wild-type mice that underwent a sham or MI operation: mice with […]
# in MI/EF-1 group). (g) Echocardiographic parameters obtained through left ventricular trace analysis of the parasternal long-axis obtained in B-mode in male wild-type mice that underwent a sham or MI […]
# male mice in MI/Veh group for T2 and T4). Echocardiographic parameters were measured weekly (indicated by ‘T’). All data are presented as mean (value of individual mice) ± SD, two-tailed unpaired […]
# 1 groups. Source data are provided as a Source Data file. AngII, angiotensin II; ANOVA, analysis of variance; Ctrl, control; DOX, doxorubicin; EF, ejection fraction; ERBB4, erythroblastic leukemia viral oncogene homolog 4; FS, fractional shortening; IVSd, interventricular septum thickness in diastole; IVSs, interventricular septum thickness in systole; LVIDd, left ventricular internal diameter in diastole; LVIDs, left ventricular internal diameter in systole; LVPWd, left ventricular posterior wall thickness in diastole; LVPWs, left ventricular posterior wall thickness in systole; MI, myocardial infarction; NA, non-activating pharmacophore-containing compound; SD, standard variation; Veh, vehicle.
# [1] = Myocardial infarction, female wild-type mice, MI/EF-1, T0
# [2] = Myocardial infarction, female wild-type mice, MI/EF-1, T2
# [3] = Myocardial infarction, female wild-type mice, MI/EF-1, T3
# [4] = Myocardial infarction, female wild-type mice, MI/EF-1, T4
# [5] = Myocardial infarction, male wild-type mice, MI/EF-1, T0
# [6] = Myocardial infarction, male wild-type mice, MI/EF-1, T2
# [7] = Myocardial infarction, male wild-type mice, MI/EF-1, T3
# [8] = Myocardial infarction, male wild-type mice, MI/EF-1, T4
# [9] = female wild-type mice, MI/EF-1, T0, mean ± SD
# [10] = female wild-type mice, MI/EF-1, T2, mean ± SD
# [11] = female wild-type mice, MI/EF-1, T3, mean ± SD
# [12] = female wild-type mice, MI/EF-1, T4, mean ± SD
# [13] = male mice, MI/EF-1, 0 weeks after MI
# [14] = male wild-type mice, MI/EF-1, T0, mean ± SD
# [15] = male wild-type mice, MI/EF-1, T2, mean ± SD
# [16] = male wild-type mice, MI/EF-1, T3, mean ± SD
# [17] = male wild-type mice, MI/EF-1, T4, mean ± SD
smiles,measurement,setting,value
O=C(NC1CC1)C(Sc1nc2ccccc2c(=O)n1C1CCCC1)c1ccccc1 (stereo not shown) [EF-1],LVEDA,[1],21.8 ± 1.4 mm²
same,LVEDV,[1],56.7 ± 5.5 µL
same,LVESA,[1],15.5 ± 2.1 mm²
same,LVESV,[1],32.7 ± 6.7 µL
same,LVEDA,[2],25.7 ± 1.6 mm²
same,LVEDV,[2],73.6 ± 9.1 µL
same,LVESA,[2],20.8 ± 2.9 mm²
same,LVESV,[2],53.9 ± 14.5 µL
same,LVEDA,[3],26.5 ± 4.5 mm²
same,LVEDV,[3],80.3 ± 22.9 µL
same,LVESA,[3],21.2 ± 5.8 mm²
same,LVESV,[3],56.6 ± 25.0 µL
same,LVEDA,[4],26.5 ± 4.5 mm²
same,LVEDV,[4],80.3 ± 22.9 µL
same,LVESA,[4],21.2 ± 5.8 mm²
same,LVESV,[4],56.6 ± 25.0 µL
same,LVEDA,[5],24.7 ± 3.9 mm²
same,LVEDV,[5],67.1 ± 15.6 µL
same,LVESA,[5],17.6 ± 2.8 mm²
same,LVESV,[5],37.3 ± 8.9 µL
same,LVEDA,[6],34.8 ± 5.5 mm²
same,LVEDV,[6],118.7 ± 30.8 µL
same,LVESA,[6],29.7 ± 6.7 mm²
same,LVESV,[6],93.3 ± 36.1 µL
same,LVEDA,[7],36.6 ± 5.9 mm²
same,LVEDV,[7],124.6 ± 35.3 µL
same,LVESA,[7],31.3 ± 8.0 mm²
same,LVESV,[7],100.4 ± 42.0 µL
same,LVEDA,[8],35.9 ± 6.9 mm²
same,LVEDV,[8],119.8 ± 37.5 µL
same,LVESA,[8],30.5 ± 7.7 mm²
same,LVESV,[8],92.5 ± 40.6 µL
same,effect on MI-induced increase in LVEDV and LVESV (in words),"female mice, four-week treatment, EF-1 2 mg/kg/day",significantly attenuated the increase in LVEDV and LVESV
same,effect on left ventricular ejection fraction (in words),"female mice, four-week treatment, p = 0.0858",trend towards an increased EF
same,EF (ejection fraction),[9],42.7 ± 8.1%
same,LVEDA,[9],21.8 ± 1.4 mm²
same,LVEDV,[9],56.7 ± 5.5 µL
same,LVESA,[9],15.5 ± 2.1 mm²
same,LVESV,[9],32.7 ± 6.7 µL
same,EF (ejection fraction),[10],27.4 ± 14.1%
same,LVEDA,[10],25.7 ± 1.6 mm²
same,LVEDV,[10],73.6 ± 9.1 µL
same,LVESA,[10],20.8 ± 2.9 mm²
same,LVESV,[10],53.9 ± 14.5 µL
same,EF (ejection fraction),[11],32.2 ± 12.4%
same,LVEDA,[11],26.5 ± 4.5 mm²
same,LVEDV,[11],80.3 ± 22.9 µL
same,LVESA,[11],21.2 ± 5.8 mm²
same,LVESV,[11],56.6 ± 25.0 µL
same,EF (ejection fraction),[12],32.2 ± 12.4%
same,LVEDA,[12],26.5 ± 4.5 mm²
same,LVEDV,[12],80.3 ± 22.9 µL
same,LVESA,[12],21.2 ± 5.8 mm²
same,LVESV,[12],56.6 ± 25.0 µL
same,"effect on LVEDV, LVESV, or EF (in words)",male mice,"did not have affect LVEDV, LVESV, or EF"
same,ejection fraction,[13],45.4182 and 46.7993 and 31.6272 and 37.5306 and 56.6563
same,left-ventricular end-diastolic volume,[13],76.7178 and 76.3835 and 40.6948 and 76.4847 and 65.2387
same,left-ventricular end-systolic volume,[13],41.874 and 40.6361 and 27.8242 and 47.7795 and 28.2468
same,left-ventricular end-diastolic volume,"male mice, MI/EF-1, 3 weeks after MI",90.4868 and 146.112 and 167.204 and 86.1633 and 133.043
same,EF (ejection fraction),[14],43.6 ± 9.5%
same,LVEDA,[14],24.7 ± 3.9 mm²
same,LVEDV,[14],67.1 ± 15.6 µL
same,LVESA,[14],17.6 ± 2.8 mm²
same,LVESV,[14],37.3 ± 8.9 µL
same,EF (ejection fraction),[15],23.2 ± 12.8%
same,LVEDA,[15],34.8 ± 5.5 mm²
same,LVEDV,[15],118.7 ± 30.8 µL
same,LVESA,[15],29.7 ± 6.7 mm²
same,LVESV,[15],93.3 ± 36.1 µL
same,EF (ejection fraction),[16],22.0 ± 15.7%
same,LVEDA,[16],36.6 ± 5.9 mm²
same,LVEDV,[16],124.6 ± 35.3 µL
same,LVESA,[16],31.3 ± 8.0 mm²
same,LVESV,[16],100.4 ± 42.0 µL
same,EF (ejection fraction),[17],25.2 ± 11.5%
same,LVEDA,[17],35.9 ± 6.9 mm²
same,LVEDV,[17],119.8 ± 37.5 µL
same,LVESA,[17],30.5 ± 7.7 mm²
same,LVESV,[17],92.5 ± 40.6 µL
